Tested on: Mitochondria-located protein genes
Assay: DNA chip mRNA expression in yeast, mitochondria-located protein genes (Table 2)
Format: cell-based, Saccharomyces cerevisiae S288C
Settings: cells incubated two hours with the chemical substance
In short: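 Measured as treated-to-untreated fluorescence ratio on a full-genome yeast DNA chip. Cells (S288C, YPD, 25° C.) were exposed in log phase for two hours to one chemical, dosed to curb growth without killing.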

Measured: The level of expressed mRNA in the presence of chemical substance/The level of expressed mRNA in the absence of chemical substance

S=C([S-])NCCNC(=S)[S-].[Zn+2] [(11), zinc N,N′-ethylenebis(dithiocarbamate)]
1.3: yeast gene YBR003W | yeast gene YDR079W | yeast gene YDR231C | yeast gene YGR082W | yeast gene YGR174C | yeast gene YIL155C | yeast gene YKL016C | yeast gene YKR066C | yeast gene YLL041C | yeast gene YLR295C | yeast gene YLR348C | yeast gene YML120C | yeast gene YMR089C | yeast gene YPL135W | yeast gene YPR134W
2.6: yeast gene YGR008C
2.0: yeast gene YDR178W | yeast gene YKL142W
1.4: yeast gene YDL067C | yeast gene YDR377W | yeast gene YJL166W | yeast gene YJL180C | yeast gene YJR045C | yeast gene YLR038C | yeast gene YML054C | yeast gene YOR100C | yeast gene YOR176W | yeast gene YOR187W | yeast gene YPL262W
0.7: yeast gene YBL038W | yeast gene YBR091C | yeast gene YGL187C | yeast gene YJL102W | yeast gene YKL170W
1.0: yeast gene YMR267W | yeast gene YOR150W
0.9: yeast gene YBR282W | yeast gene YEL024W | yeast gene YJR121W | yeast gene YPL040C | yeast gene YPR024W | yeast gene YPR037C
1.1: yeast gene YAL039C | yeast gene YBL022C | yeast gene YBL030C | yeast gene YBR044C | yeast gene YGL018C | yeast gene YGR028W | yeast gene YNL073W | yeast gene YPL215W | yeast gene YPR047W
0.6: yeast gene YNL256W | yeast gene YOR130C
1.7: yeast gene YDR258C | yeast gene YEL039C | yeast gene YGR076C | yeast gene YKL003C | yeast gene YPL134C
2.4: yeast gene YOR316C
0.8: yeast gene YDL181W | yeast gene YDR347W | yeast gene YDR529C | yeast gene YMR023C
2.3: yeast gene YMR203W
1.5: yeast gene YBR251W | yeast gene YCR046C | yeast gene YKL148C | yeast gene YLR395C | yeast gene YMR035W | yeast gene YOR142W
1.9: yeast gene YNL055C
3.0: yeast gene YLR259C
1.8: yeast gene YCR083W | yeast gene YGR244C
2.5: yeast gene YDL198C | yeast gene YER178W | yeast gene YOR020C
2.1: yeast gene YBL099W | yeast gene YHR008C | yeast gene YNL104C
1.6: yeast gene YCL057W | yeast gene YGL191W | yeast gene YGR062C | yeast gene YJR077C | yeast gene YKL194C | yeast gene YLR304C | yeast gene YMR083W | yeast gene YNL071W
1.2: yeast gene YBR122C | yeast gene YBR185C | yeast gene YBR221C | yeast gene YDR298C | yeast gene YFL016C | yeast gene YJL096W | yeast gene YJL133W | yeast gene YKL141W | yeast gene YML129C | yeast gene YMR152W | yeast gene YOL096C | yeast gene YOR037W
